Source: patent US12565467B2, “Compounds, compositions, and methods for the treatment of inflammatory, degenerative, and neurodegenerative diseases” (Board of Supervisors of Louisiana State University and …, priority 2015, dated 2026)

Key:
[1] = tested on: SIRT1; test: SIRT1 abundance in ARPE-19 cells under oxidative stress; assay type: cell-based; conditions: ARPE-19 / human RPE cells confronted with OS
Excerpt: FIG. 10. (A) Effect of NPD1 and VLC-PUFA C32:6 and C34:6 in mediating upregulation of SIRT1 in ARPE-19 cells. (B) Quantification of SIRT1 upregulation by NPD1, C32:6 and C34:6. SIRT1 (Sirtuin1) belongs to a family of highly conserved proteins linked to caloric restriction beneficial outcomes and aging by regulating energy metabolism, genomic stability and stress resistance. SIRT1 is a potential therapeutic target in several diseases including cancer, diabetes, inflammatory disorders, and neurodegenerative diseases or disorders. Elovanoids induce cell survival involving the upregulation of the Bcl2 class of survival proteins and the downregulation of pro-apoptotic Bad and Bax under oxidative stress (OS) in RPE cells. […] As a consequence, remarkable cell survival takes place. This target of elovanoids might be relevant to counteract consequences of several diseases associated with SIRT1.
FIG. 10—(A) Effect of NPD1 and VLC-PUFA C32:6 and C34:6 in mediating upregulation of SIRT1 in ARPE-19 cells. (B) Quantification of SIRT1 upregulation by NPD1, C32:6 and C34:6. SIRT1 (Sirtuin1) belongs to a family of highly conserved proteins linked to caloric restriction beneficial outcomes and aging by regulating energy metabolism, genomic stability and stress resistance. […]

[2] = tested on: neuronal cells in primary cultures; test: NMDA-induced toxicity in neuronal cells in primary culture, MTT assay for cell viability; assay type: cell-based
Excerpt: FIG. 11. […] In several neurological and neurodegenerative diseases, such as stroke, epilepsy, status epilepticus, traumatic head injury, etc., as well as ophthalmological diseases, such as glaucoma, an excessive presynaptic release of the excitatory neurotransmitter glutamate takes place. As a consequence, glutamate transporters that function to remove extracellular glutamate from astrocytes and neurons are overwhelmed and the NMDA-type glutamate receptor is over-activated. This receptor is a calcium channel that therefore leads to a flooding of calcium into the postsynaptic cell. The overall phenomena is refer to as excitotoxicity that in turn leads to neuronal damage and cell death. MK801 is a known blocker of this receptor used here as a control.
In several neurological and neurodegenerative diseases, such as stroke, epilepsy, status epilepticus, traumatic head injury, etc., as well as ophthalmological diseases, such as glaucoma, an excessive presynaptic release of the excitatory neurotransmitter glutamate takes place. As a consequence, glutamate transporters that function to remove extracellular glutamate from astrocytes and neurons are overwhelmed and the NMDA-type glutamate receptor is over-activated. This receptor is a calcium channel that therefore leads to a flooding of calcium into the postsynaptic cell. The overall phenomena is refer to as excitotoxicity that in turn leads to neuronal damage and cell death. MK801 is a known blocker of this receptor used here as a control.

| SMILES | effect on SIRT1 abundance (FIG. 10) [1] | protection of neuronal cells from NMDA-induced toxicity (FIG. 11A) ([2]; 200 nM) | cell death and cell viability with NMDA in increasing concentrations (FIG. 11) ([2]; neuronal cultures, MTT) |
| --- | --- | --- | --- |
| CC/C=C\C/C=C\C/C=C\C/C=C\C/C=C\C/C=C\CCCCCCCCCCCCCCC(=O)O [C34:6] | mediate the upregulation of SIRT1 | – | – |
| CC/C=C\C[C@H](O)\C=C/C=C/C=C/[C@H](O)C/C=C\C/C=C\CCCCCCCCCCCCCCC(=O)O [ELV2, (16Z,19Z,22R,23E,25E,27Z,29S,31Z)-22,29-dihydroxytetratriaconta-16,19,23,25,27,31-hexaenoic acid] | – | potently protects neuronal cells | reduces cell death and increases cell viability |
